Assay results as given in the supplement of paper PMC10307832.

What was measured:
Test in all cases: relative viability (nuclei count vs DMSO), 5 days (fraction); higher = more cells survive
[1] = compound: CCN1C(=O)C2=CC(=C(N=C2N(C1=O)C3CC3)N)C(=O)N + CS(=O)(=O)CCNCc1ccc(-c2ccc3ncnc(Nc4ccc(OCc5cccc(F)c5)c(Cl)c4)c3c2)o1 [Lapatinib] (partner 2 µM)
Summary of the method: (§1)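 Lung cancer cell lines in 1536-well plates got either a single drug or a fixed anchor-drug dose together with five library-drug doses (not always all listed) in √10 steps, by pin tool, on the day after seeding. Nuclei were counted after 5 days, and relative viability is the treated-to-vehicle ratio of nuclei counts. Values are medians of duplicate plates.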

[2] = compound: CCN1C(=O)C2=CC(=C(N=C2N(C1=O)C3CC3)N)C(=O)N + Nc1nc2[nH]cc(CCc3ccc(C(=O)N[C@@H](CCC(=O)O)C(=O)O)cc3)c2c(=O)[nH]1 [Pemetrexed] (partner 0.2 µM)
Summary of the method: as §1

[3] = compound: CCN1C(=O)C2=CC(=C(N=C2N(C1=O)C3CC3)N)C(=O)N + CC(C)C[C@H](NC(=O)[C@H](Cc1ccccc1)NC(=O)c1cnccn1)B(O)O [Bortezomib] (partner 0.002 µM)
Summary of the method: as §1

[4] = compound: CCN1C(=O)C2=CC(=C(N=C2N(C1=O)C3CC3)N)C(=O)N + CS(=O)(=O)N1CCN(Cc2cc3nc(-c4cccc5[nH]ncc45)nc(N4CCOCC4)c3s2)CC1 [Pictilisib] (partner 1 µM)
Summary of the method: as §1

[5] = compound: CCN1C(=O)C2=CC(=C(N=C2N(C1=O)C3CC3)N)C(=O)N + CC(=O)c1c(C)c2cnc(Nc3ccc(N4CCNCC4)cn3)nc2n(C2CCCC2)c1=O [Palbociclib] (partner 0.5 µM)
Summary of the method: as §1

Cell Line | relative viability ([1]; first compound 0.253 µM) | relative viability ([1]; first compound 0.8 µM) | relative viability ([1]; first compound 2.53 µM) | relative viability ([1]; first compound 8 µM) | relative viability ([2]; first compound 0.253 µM) | relative viability ([2]; first compound 0.8 µM) | relative viability ([2]; first compound 2.53 µM) | relative viability ([2]; first compound 8 µM) | relative viability ([3]; first compound 0.253 µM) | relative viability ([3]; first compound 0.8 µM) | relative viability ([3]; first compound 2.53 µM) | relative viability ([3]; first compound 8 µM) | relative viability ([4]; first compound 0.253 µM) | relative viability ([4]; first compound 0.8 µM) | relative viability ([4]; first compound 2.53 µM) | relative viability ([4]; first compound 8 µM) | relative viability ([5]; first compound 0.253 µM) | relative viability ([5]; first compound 0.8 µM) | relative viability ([5]; first compound 2.53 µM) | relative viability ([5]; first compound 8 µM)
HCC-827 | 0.183 | 0.219 | 0.17 | 0.206 | 0.259 | 0.268 | 0.224 | 0.264 | 1.06 | 1.11 | 1.06 | 0.972 | 0.954 | 1.08 | 1.16 | 1.03 | 0.475 | 0.45 | 0.395 | 0.517
HOP-62 | 0.844 | 1.29 | 1.01 | 1.1 | 0.278 | 0.353 | 0.303 | 0.345 | 0.914 | 0.75 | 0.754 | 0.733 | 1.01 | 0.883 | 0.413 | 0.804 | 0.516 | 0.428 | 0.415 | 0.474
LC-2-ad | 0.841 | 0.747 | 0.943 | 0.903 | 0.288 | 0.298 | 0.273 | 0.278 | 0.922 | 0.965 | 1.02 | 1.07 | 0.465 | 0.409 | 0.514 | 0.506 | 0.424 | 0.53 | 0.483 | 0.496
LCLC-97TM1 | 1.01 | – | – | 1.05 | 0.227 | 0.177 | 0.173 | 0.172 | 0.873 | 0.326 | 1.27 | 0.625 | 0.203 | – | – | 0.223 | 0.272 | 0.244 | 0.294 | 0.181
LOU-NH91 | 0.869 | 0.732 | 0.83 | 0.766 | 0.369 | 0.377 | 0.383 | 0.379 | 0.565 | 0.502 | 0.516 | 0.496 | 0.509 | 0.516 | 0.541 | 0.538 | 0.542 | 0.554 | 0.516 | 0.513
LU99A | 1.04 | 0.984 | 0.984 | 1.09 | 0.174 | 0.187 | 0.168 | 0.184 | 1.25 | 1.16 | 1.06 | 1.19 | 0.305 | 0.332 | 0.303 | 0.363 | 0.461 | 0.448 | 0.419 | 0.409
LXF-289 | 0.867 | 0.951 | 0.938 | 0.89 | 0.917 | 0.889 | 0.895 | 0.993 | 0.987 | 0.997 | 0.966 | 0.994 | 0.831 | 0.85 | 0.819 | 0.775 | 0.616 | 0.581 | 0.657 | 0.588
NCI-H23 | 1.21 | 1.08 | 1.06 | 1.11 | 0.785 | 0.734 | 0.677 | 0.634 | 1.02 | 1.03 | 1.08 | 0.956 | 0.453 | 0.447 | 0.473 | 0.487 | 0.502 | 0.604 | 0.461 | 0.49
NCI-H322M | 0.585 | 0.536 | 0.562 | 0.592 | 0.632 | 0.541 | 0.634 | 0.6 | 1.25 | 0.701 | 1.25 | 1.14 | 0.452 | 0.504 | 0.486 | 0.488 | 0.478 | 0.455 | 0.482 | 0.502
NCI-H460 | 1.04 | 1.07 | 0.902 | 1.02 | 0.0628 | 0.0522 | 0.0677 | 0.0646 | 1.16 | 1.03 | 0.983 | 1.23 | 0.372 | 0.339 | 0.461 | 0.341 | 0.22 | 0.151 | 0.115 | 0.192
NCI-H520 | 0.898 | 0.907 | 0.957 | 0.941 | 0.635 | 0.64 | 0.703 | 0.657 | 0.574 | 0.574 | 0.743 | 0.612 | 0.273 | 0.302 | 0.317 | 0.27 | 0.24 | 0.228 | 0.185 | 0.203
NCI-H647 | 1.09 | 1.13 | 0.992 | 1.13 | 0.174 | 0.205 | 0.157 | 0.185 | 0.92 | 1.05 | 0.951 | 0.784 | 0.424 | – | 0.432 | 0.462 | 0.434 | 0.356 | 0.328 | 0.355
NCI-H650 | 1.03 | 0.883 | 1.07 | 0.872 | 0.962 | 0.782 | 0.954 | 0.978 | 1.03 | 0.701 | 0.935 | 0.701 | 0.997 | 0.922 | 0.684 | 0.893 | 0.363 | 0.299 | 0.342 | 0.334
NCI-H661 | 0.526 | 0.631 | 0.428 | 0.5 | 0.918 | 0.905 | 0.935 | 0.886 | 0.809 | 0.9 | 0.793 | 0.942 | 0.401 | 0.368 | 0.45 | 0.395 | 0.391 | 0.389 | 0.39 | 0.4
NCI-H838 | 0.948 | 1.02 | 0.916 | 0.896 | 0.239 | 0.274 | 0.242 | 0.248 | 0.857 | 0.887 | 0.891 | 0.912 | 0.468 | 0.41 | 0.437 | 0.503 | 0.251 | 0.216 | 0.215 | 0.213
NCI-H1355 | 1.08 | 1.06 | 0.998 | 1.01 | 1.03 | 1 | 1.03 | 0.96 | 1.22 | 1.3 | 1.22 | 1.25 | 0.324 | 0.513 | 0.419 | 0.505 | 0.418 | 0.358 | 0.396 | 0.395
NCI-H1437 | 0.818 | 0.794 | 0.829 | 0.838 | 0.294 | 0.316 | 0.287 | 0.304 | 0.489 | 0.543 | 0.515 | 0.618 | 0.433 | 0.416 | 0.445 | 0.465 | 0.337 | 0.323 | 0.315 | 0.245
NCI-H1650 | 0.337 | 0.815 | 0.746 | 0.904 | 0.38 | 0.324 | 0.333 | 0.382 | 0.192 | 0.185 | 0.182 | 0.187 | 0.501 | 0.547 | 0.521 | 0.589 | 0.315 | 0.364 | 0.346 | 0.313
NCI-H1651 | 0.749 | 0.78 | 0.936 | 0.834 | 0.582 | 0.608 | 0.588 | 0.597 | 0.996 | 0.897 | 0.964 | 0.858 | 0.552 | 0.581 | 0.461 | 0.595 | 0.471 | 0.489 | 0.512 | 0.501
NCI-H1666 | 0.831 | 0.495 | 0.633 | 0.736 | 0.844 | 0.879 | 0.812 | 0.799 | 0.739 | 0.692 | 0.848 | 0.74 | 0.42 | 0.377 | 0.391 | 0.359 | 0.683 | 0.654 | 0.629 | 0.65
NCI-H1734 | 1.08 | 1.07 | 1.03 | 1.1 | 0.432 | 0.392 | 0.405 | 0.423 | 0.953 | 0.999 | 0.918 | 1 | 0.456 | 0.495 | 0.44 | 0.473 | 0.346 | 0.328 | 0.363 | 0.36
NCI-H1755 | 0.999 | 1.09 | 0.779 | 1.02 | 0.525 | 0.412 | 0.418 | 0.471 | 0.949 | 0.966 | 0.921 | 0.948 | 0.431 | 0.405 | 0.452 | 0.488 | 0.443 | 0.453 | 0.436 | 0.44
NCI-H1792 | 0.993 | 0.859 | 1.1 | 0.769 | 0.733 | 0.77 | 0.911 | 0.909 | 0.983 | 0.861 | 1.03 | 1.06 | 0.312 | 0.28 | 0.355 | 0.3 | 0.674 | 0.631 | 0.668 | 0.653
NCI-H1915 | 0.952 | 0.942 | 0.974 | 0.922 | 0.5 | 0.507 | 0.493 | 0.509 | 0.968 | 0.93 | 0.955 | 0.955 | 0.953 | 0.843 | 0.953 | 0.904 | 0.531 | 0.508 | 0.493 | 0.526
NCI-H1975 | 0.841 | 0.844 | 0.868 | 0.91 | 0.294 | 0.292 | 0.319 | 0.288 | 0.378 | 0.423 | 0.413 | 0.439 | 0.276 | 0.293 | 0.306 | 0.306 | 0.564 | 0.623 | 0.602 | 0.489
NCI-H1993 | 0.782 | 0.817 | 0.815 | 0.823 | 0.607 | 0.525 | 0.607 | 0.541 | 1.05 | 0.925 | 0.983 | 1.11 | 0.706 | 0.832 | 0.786 | 0.758 | 0.414 | 0.561 | 0.651 | 0.676
NCI-H2009 | 0.93 | 1.23 | 0.892 | 0.847 | 1.1 | 1.09 | 1 | 0.966 | 0.963 | 1.09 | 0.965 | 0.94 | 0.874 | 0.803 | 0.8 | 0.771 | 0.208 | 0.184 | 0.21 | 0.186
